One block for each molecule: values may come before it. Active and inactive are the calls of the source.
Columns and labels:
Jurkat = assay: SAR Analysis of small molecule inhibitors of T-cell specific antigen receptor-induced NF-kB activation in a Jurkat cell line using a luminescence assay - Set 2. [Related pubchem assays (depositor defined):AID435003, AID435012, AID465]; format: functional, cell-based; conditions: Homo sapiens
HEK293 [1] = assay: SAR Analysis of small molecule inhibitors of T-cell specific antigen receptor-induced NF-kB activation in a HEK-293T cell line using a luminescence assay - Set 2. [Related pubchem assays (depositor defined):AID435003, AID435012, AID489026]; format: functional, cell-based; conditions: Homo sapiens
HEK293 [2] = assay: HEK293T cell viability loss, resazurin readout – resazurin fluorescence, cytotoxicity control for NF-kB activator project, SAR follow-up (AID 493251); format: functional, cell-based; conditions: Homo sapiens
[3] = NIH3T3 cell viability loss – ATP luminescence, mouse fibroblasts, counter-screen, dose response (AID 2010); format: functional, cell-based;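 further: cells exposed to compound for about 90 hours before reading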
[4] = molecular target: FAD-linked sulfhydryl oxidase ALR (Homo sapiens, UniProt P55789); assay: ALR-catalysed DTT oxidation blockers – biochemical, H2O2 detection, luminescence, cherry-pick, dose response (AID 493248)
HEK293 [5] = assay: cells; format: functional, cell-based; conditions: Homo sapiens
HEK293 [6] = assay: cells; format: functional, cell-based; conditions: Homo sapiens; remark: listed apart in the source
[7] = Trypanosoma cruzi growth suppression in host cells – NIH3T3 host cells, beta-gal luminescence, confirmation (AID 2044); format: functional, cell-based;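 further: intracellular parasites grown in NIH/3T3 mouse fibroblasts as host cells; luminescent beta-galactosidase reporter signal from transgenic T. cruzi replicating inside host cells; inhibitors lower the luminescence signal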
HEK293 [8] = assay: NOD2 signaling inhibitors in MDP-stimulated cells, cell-based, uHTS, luminescence (AID 2001); format: functional; conditions: Homo sapiens
HEK293 [9] = assay: inhibition of NOD1-driven NF-kB reporter – cell-based, luminescence, uHTS, primary screen (AID 1578); format: functional; conditions: Homo sapiens
[10] = molecular target: 26S proteasome non-ATPase regulatory subunit 14 (Homo sapiens, UniProt O00487); assay: inhibition of proteasome subunit RPN11 – biochemical, fluorescence polarization, uHTS hits, confirmation (AID 602368); format: functional
[11] = molecular target: T1, Zinc finger protein mex-5 (Caenorhabditis elegans, UniProt Q9XUB2); assay: potency of MEX-5 RNA-binding blockers – biochemical, C. elegans, fluorescence polarization, dose response (AID 1960)
T1 sequence (Q9XUB2 whole entry): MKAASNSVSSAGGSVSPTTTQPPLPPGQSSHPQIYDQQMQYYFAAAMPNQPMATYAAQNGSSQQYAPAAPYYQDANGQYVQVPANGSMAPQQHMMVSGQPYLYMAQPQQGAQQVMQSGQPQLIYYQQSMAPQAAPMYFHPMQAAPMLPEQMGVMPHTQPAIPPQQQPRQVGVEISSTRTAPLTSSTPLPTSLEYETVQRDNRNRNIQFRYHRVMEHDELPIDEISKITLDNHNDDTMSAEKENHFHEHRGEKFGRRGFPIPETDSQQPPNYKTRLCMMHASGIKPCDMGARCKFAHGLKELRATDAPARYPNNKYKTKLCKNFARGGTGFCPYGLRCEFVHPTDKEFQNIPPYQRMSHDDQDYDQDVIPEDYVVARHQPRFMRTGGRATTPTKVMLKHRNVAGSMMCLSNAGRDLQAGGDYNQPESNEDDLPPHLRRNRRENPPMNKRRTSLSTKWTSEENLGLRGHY

[12] = molecular target: T2, RNA-binding protein pos-1 (Caenorhabditis elegans, UniProt G5EF15); assay: disruptors of C. elegans POS-1 RNA interaction – biochemical, fluorescence polarization, dose response (AID 1964);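 further: purified POS-1 fused to maltose binding protein made in E. coli; potency of compounds blocking POS-1 binding to fluorescent RNA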
T2 sequence (G5EF15 whole entry): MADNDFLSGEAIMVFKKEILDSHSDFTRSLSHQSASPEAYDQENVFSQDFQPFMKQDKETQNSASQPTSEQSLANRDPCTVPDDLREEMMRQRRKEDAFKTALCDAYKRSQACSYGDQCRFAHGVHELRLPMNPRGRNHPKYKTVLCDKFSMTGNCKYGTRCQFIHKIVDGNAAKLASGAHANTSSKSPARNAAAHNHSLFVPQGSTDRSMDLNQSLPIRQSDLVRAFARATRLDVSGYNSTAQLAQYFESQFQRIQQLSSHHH

Prothrombin = Prothrombin (Bos taurus, UniProt P00735); assay: thrombin protease inhibitors – biochemical, fluorescence polarization, uHTS hits, dose response (AID 602369); format: functional
[13] = molecular target: 72 kDa type IV collagenase (Homo sapiens, UniProt P08253); assay: Dose Response validation of uHTS RPN11 inhibitor hits using a MMP-2 Fluorescence assay.; format: functional
Escherichia coli = assay: microbe, parasite or virus in culture
[14] = molecular target: T3, Histone-lysine N-methyltransferase NSD2 (Homo sapiens, UniProt O96028); format: biochemical
T3 sequence (O96028 whole entry): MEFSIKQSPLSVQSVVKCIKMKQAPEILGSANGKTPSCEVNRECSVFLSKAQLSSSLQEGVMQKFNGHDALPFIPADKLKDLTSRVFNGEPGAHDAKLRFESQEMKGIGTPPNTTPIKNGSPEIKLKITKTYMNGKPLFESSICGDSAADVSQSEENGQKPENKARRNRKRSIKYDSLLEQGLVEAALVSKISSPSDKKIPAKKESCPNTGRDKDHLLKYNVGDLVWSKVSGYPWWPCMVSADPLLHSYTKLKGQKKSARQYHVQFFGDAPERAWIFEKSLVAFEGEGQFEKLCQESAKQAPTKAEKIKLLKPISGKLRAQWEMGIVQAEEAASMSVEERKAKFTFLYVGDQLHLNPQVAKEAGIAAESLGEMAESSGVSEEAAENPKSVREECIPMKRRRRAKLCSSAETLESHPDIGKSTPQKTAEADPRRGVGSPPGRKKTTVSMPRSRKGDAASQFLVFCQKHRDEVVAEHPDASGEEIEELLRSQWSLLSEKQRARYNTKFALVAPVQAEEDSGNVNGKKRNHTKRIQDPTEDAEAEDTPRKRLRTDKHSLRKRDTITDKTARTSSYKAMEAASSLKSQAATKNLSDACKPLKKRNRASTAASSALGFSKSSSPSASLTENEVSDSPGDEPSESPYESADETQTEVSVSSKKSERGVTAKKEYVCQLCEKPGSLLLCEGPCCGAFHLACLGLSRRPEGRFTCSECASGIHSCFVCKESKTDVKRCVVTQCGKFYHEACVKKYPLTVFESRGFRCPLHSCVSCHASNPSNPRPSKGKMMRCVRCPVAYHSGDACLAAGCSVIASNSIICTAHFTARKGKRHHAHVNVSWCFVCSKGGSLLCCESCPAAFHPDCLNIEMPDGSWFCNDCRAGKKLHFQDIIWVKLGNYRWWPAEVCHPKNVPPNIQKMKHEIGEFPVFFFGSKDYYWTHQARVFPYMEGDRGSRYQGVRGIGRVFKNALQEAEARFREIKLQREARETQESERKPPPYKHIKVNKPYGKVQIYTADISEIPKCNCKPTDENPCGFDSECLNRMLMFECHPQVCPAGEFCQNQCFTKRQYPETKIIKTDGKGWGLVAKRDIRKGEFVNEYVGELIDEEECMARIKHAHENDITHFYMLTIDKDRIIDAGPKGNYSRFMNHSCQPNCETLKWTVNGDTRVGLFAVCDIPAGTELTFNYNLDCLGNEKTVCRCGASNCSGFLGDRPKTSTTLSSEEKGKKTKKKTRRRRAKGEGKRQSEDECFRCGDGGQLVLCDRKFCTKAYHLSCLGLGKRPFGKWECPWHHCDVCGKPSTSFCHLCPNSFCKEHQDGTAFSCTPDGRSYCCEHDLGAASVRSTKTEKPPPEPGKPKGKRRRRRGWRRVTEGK

[15] = molecular target: DNA (cytosine-5)-methyltransferase 1 (Homo sapiens, UniProt P26358); assay: inhibition of DNA methylation by DNMT1 – biochemical, fluorescent molecular beacon, confirmation (AID 602386); format: functional
Caspase-6 = molecular target: T4, Caspase-6 (Homo sapiens, UniProt P55212); assay: inhibition of CASP6 peptide cleavage – biochemical, VEID-R110 fluorescence, cherry-pick, dose response (AID 720632)
T4 sequence (P55212 whole entry): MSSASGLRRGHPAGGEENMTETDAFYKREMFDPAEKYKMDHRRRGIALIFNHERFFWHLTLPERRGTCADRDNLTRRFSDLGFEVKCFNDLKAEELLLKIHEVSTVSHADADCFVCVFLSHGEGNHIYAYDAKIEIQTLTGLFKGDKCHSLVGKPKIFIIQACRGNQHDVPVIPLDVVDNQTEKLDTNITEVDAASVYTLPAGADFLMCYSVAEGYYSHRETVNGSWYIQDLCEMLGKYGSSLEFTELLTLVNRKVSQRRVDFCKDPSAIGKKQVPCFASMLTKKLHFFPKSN

Chain of DNA (cytosine-5)-methyltransferase 1 (P26358 whole entry): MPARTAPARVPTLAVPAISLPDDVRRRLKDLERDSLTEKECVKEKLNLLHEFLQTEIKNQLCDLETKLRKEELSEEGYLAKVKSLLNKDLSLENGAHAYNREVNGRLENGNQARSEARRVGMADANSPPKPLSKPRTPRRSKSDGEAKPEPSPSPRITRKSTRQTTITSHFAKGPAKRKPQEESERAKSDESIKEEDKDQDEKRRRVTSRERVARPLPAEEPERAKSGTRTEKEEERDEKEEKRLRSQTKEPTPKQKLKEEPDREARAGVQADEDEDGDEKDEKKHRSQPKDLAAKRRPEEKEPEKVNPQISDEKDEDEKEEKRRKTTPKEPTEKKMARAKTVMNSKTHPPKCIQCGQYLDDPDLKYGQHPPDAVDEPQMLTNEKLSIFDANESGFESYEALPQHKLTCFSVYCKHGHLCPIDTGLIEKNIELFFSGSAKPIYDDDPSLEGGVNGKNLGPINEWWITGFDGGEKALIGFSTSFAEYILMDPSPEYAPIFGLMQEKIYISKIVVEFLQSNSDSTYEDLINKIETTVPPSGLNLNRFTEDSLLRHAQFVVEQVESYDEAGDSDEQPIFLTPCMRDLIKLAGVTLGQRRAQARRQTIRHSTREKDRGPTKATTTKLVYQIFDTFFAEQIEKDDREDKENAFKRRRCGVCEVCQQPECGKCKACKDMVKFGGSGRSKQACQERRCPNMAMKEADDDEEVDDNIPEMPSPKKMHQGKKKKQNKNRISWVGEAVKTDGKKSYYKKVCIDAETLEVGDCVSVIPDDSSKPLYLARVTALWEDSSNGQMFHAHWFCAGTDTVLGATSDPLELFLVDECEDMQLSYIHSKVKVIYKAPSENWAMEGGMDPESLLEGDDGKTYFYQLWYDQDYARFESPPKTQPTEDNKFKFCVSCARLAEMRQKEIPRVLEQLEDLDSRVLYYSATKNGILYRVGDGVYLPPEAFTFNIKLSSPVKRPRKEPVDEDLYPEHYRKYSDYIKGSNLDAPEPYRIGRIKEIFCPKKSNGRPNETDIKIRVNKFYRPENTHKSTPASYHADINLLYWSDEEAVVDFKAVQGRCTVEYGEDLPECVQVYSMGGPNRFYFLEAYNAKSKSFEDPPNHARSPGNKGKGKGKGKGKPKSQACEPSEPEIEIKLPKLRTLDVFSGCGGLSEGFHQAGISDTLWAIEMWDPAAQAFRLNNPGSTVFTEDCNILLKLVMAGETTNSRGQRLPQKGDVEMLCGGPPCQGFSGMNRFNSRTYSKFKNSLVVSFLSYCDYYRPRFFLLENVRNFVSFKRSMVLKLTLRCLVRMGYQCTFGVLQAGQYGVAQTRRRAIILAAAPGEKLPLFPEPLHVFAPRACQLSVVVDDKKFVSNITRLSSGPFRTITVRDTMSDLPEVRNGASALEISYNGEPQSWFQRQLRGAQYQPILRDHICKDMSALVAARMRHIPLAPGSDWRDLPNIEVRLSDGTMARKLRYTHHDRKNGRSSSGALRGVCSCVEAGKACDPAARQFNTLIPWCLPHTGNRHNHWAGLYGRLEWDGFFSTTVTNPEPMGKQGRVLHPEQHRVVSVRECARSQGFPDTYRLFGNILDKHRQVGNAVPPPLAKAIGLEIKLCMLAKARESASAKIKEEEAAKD
Chain of 26S proteasome non-ATPase regulatory subunit 14 (O00487 whole entry): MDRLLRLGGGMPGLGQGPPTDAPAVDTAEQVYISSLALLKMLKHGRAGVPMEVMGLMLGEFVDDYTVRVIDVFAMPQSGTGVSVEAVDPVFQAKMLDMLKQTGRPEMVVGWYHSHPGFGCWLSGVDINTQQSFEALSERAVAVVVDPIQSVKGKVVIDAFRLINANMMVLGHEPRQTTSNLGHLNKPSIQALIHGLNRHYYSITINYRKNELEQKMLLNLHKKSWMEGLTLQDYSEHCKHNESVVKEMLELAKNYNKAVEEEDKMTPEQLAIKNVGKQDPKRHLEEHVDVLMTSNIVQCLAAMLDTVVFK
Chain of 72 kDa type IV collagenase (P08253 whole entry): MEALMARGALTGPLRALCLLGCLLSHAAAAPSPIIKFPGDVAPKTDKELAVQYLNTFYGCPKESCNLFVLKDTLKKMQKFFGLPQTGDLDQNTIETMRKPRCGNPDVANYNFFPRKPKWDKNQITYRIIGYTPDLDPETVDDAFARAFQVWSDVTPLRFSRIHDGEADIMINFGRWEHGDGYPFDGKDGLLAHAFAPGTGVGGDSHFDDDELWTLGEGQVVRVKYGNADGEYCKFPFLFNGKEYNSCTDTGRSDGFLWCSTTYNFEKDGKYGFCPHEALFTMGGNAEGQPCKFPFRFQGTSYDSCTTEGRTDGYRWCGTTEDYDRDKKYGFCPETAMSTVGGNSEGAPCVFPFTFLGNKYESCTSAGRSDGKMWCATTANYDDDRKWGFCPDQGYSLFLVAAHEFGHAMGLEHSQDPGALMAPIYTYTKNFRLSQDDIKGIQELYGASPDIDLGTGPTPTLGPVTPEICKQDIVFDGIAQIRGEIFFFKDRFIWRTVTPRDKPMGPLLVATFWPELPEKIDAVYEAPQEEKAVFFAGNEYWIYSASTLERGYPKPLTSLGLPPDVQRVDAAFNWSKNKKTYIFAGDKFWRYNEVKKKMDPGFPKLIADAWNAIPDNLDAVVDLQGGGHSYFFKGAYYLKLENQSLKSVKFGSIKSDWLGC
Chain of FAD-linked sulfhydryl oxidase ALR (P55789 whole entry): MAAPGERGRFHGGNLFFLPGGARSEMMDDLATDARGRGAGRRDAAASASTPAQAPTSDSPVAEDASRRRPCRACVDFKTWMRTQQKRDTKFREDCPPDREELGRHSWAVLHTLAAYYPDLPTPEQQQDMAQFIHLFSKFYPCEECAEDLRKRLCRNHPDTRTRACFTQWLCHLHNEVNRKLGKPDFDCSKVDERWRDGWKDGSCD

Compound: COc1ccc(C(=O)Nc2ccc(NC(=O)c3cc4ccccc4o3)cc2)cc1OC
IC50 (Jurkat): > 79 µM (inactive)
IC50 (HEK293 [1]): > 80 µM (inactive)
IC50 (HEK293 [2]): > 80 µM (inactive)

Compound: Cc1ccc2c(c1)N(C)/C(=C/c1cccc[n+]1C)S2
EC50 [3]: > 60 µM (not active)
AC50 [4]: 63.1 µM (active)
IC50 (HEK293 [5]): > 20 µM (inactive)
IC50 (HEK293 [6]): 10.6 µM (active)
EC50 [7]: < 0.1 µM (active)
EC50 (cells): 0.015 µM (active)
IC50 (HEK293 [8]): 17 µM (inactive)
EC50 (HEK293 [9]): 13.3 µM (active)

IC50 [10]: 38.4 µM (active)
EC50 [11]: > 300 µM (not active)
EC50 [12]: > 300 µM (not active)
IC50 (Prothrombin): 46.6 µM (active)
IC50 [13]: > 100 µM (inactive)
Compound: Cc1cc(C)c2c(=O)[nH]c(=O)n(Cc3ccccc3)c2n1

Compound: Cc1cc(-c2nc3ncccc3o2)ccc1NC(=O)c1ccc([N+](=O)[O-])o1
IC50 (Jurkat): 19.4 µM (active)
IC50 (HEK293 [1]): 30 µM (inactive)
IC50 (HEK293 [2]): 32 µM (inactive)

Compound: COc1ccc(C2SCCN2S(=O)(=O)c2ccccc2)cc1 (centres undefined)
AC50 (Escherichia coli): 95.3 µM (active)

AC50 [14]: 4.62 µM (active)
IC50 [15]: 7.2 µM (active)
Compound: ClN=C1C=CC=CC1=NCl

IC50 [15]: 5.82 µM (active)
AC50 (Caspase-6): 0.685 µM (active)
Compound: COc1ccc(S(=O)(=O)N2CCN(C(=O)C3COc4ccccc4O3)CC2)cc1 (centres undefined)
